Laboratory results: patent publication US20080089860A1, “Therapeutic compositions and methods useful in treating cancer” (priority 2006, published 2008)

How the values were obtained:
PTP1B = target: T1, PTP1B (Homo sapiens, UniProt P18031); experiment: In vitro PTPase assay, GST/PTP1B; type: biochemical; conditions: 0.1 to 1 μg/ml
T1 construct: purchased Upstate Biotechnology Inc. (Lake Placid, N.Y.)
Experimental: In vitro PTPase activities were measured using the commercial protein tyrosine phosphatase assay kit (Upstate Biotechnology, Inc. (“UBI”)) following established procedure known to one of skill in the art. This assay measures the in vitro dephosphorylation of a synthetic phosphotyrosine peptide of the sequence Arg-Arg-Leu-Ile-Glu-Asp-Ala-Gle-T- -yr-Ala-Ala-Arg-Gly, wherein the tyrosine is phosphorylated (SEQ ID NO: 3). Briefly, 0.01 µg of GST/PTPase fusion proteins was incubated in 50 µl of Tris buffer (10 mM Tris, pH 7.4) containing different concentrations of inhibitors or chemicals (0-1,000 µg/ml) at 22° C. for 10 minutes, followed by addition of 0.2 mM of the phosphotyrosine peptide and incubation at 22° C. for 18 hours. 100 µl of Malachite Green solution was added and incubated for 5 minutes, and the absorbance at 660 nm was measured after 5 minutes.
In vitro PTPase assays were used to determine the effects of levamisole (Sigma), pentamidine (American Pharmaceutical Partners, Inc.), and ketoconazole (Sigma) on recombinant PTPases, following established procedures (Pathak et al., J. Imumol. 167, 3391 (2001); Pathak et al., Leukemia 16, 2285 (2002), Yi et al., J. Immunol. 169, 5978 (2002)) using a synthetic phosphotyrosine peptide or DiFMUP as the substrate as detailed above in section I.A.2.

[1] = tested on: Stat1 tyrosine phosphorylation; experiment: IFN-alpha-induced Stat1 tyrosine phosphorylation, Western blotting; type: cell-based, human
Experimental: Cell lysates were prepared by lysing cells in cold lysis buffer for 30 min and cleared by centrifuging at 14,000 rpm at 4° C. for 15 min. For SDS-PAGE, cell lysates were mixed with equal volume of 2×SDS-PAGE sample buffer, heated at 90° C. for 5 min and separated in 10% SDS-PAGE gels. Cellular proteins in SDS-PAGE gels were transferred to nitrocellulose membrane (Schleicher & Schuell, Keene, N.H.), blocked in 5% milk, probed with antibodies and detected by using an enhanced chemiluminescence kit (ECL, Amersham, Arlington Heights, Ill.).

[2] = tested on: tumor-infiltrating and spleen macrophages (F4/80+), T and NK cells; experiment: Immunohistochemistry of Renca tumors and spleen, Balb/c mice; conditions: mouse, in vivo
Experimental: Major internal organs and Renca tumors harvested from mice were fixed in 10% formalin or snap frozen in liquid nitrogen. H & E-stained tissue sections of the fixed samples were prepared and evaluated by microscopy as described previously (Yi, T., M. K. Pathak, D. J. Lindner, M. E. Ketterer, C. Farver, and E. C. Borden. 2002. Anticancer activity of sodium stibogluconate in synergy with IFNs. J Immunol 169:5978). Preparation of frozen tissue sections and immunohistochemistry were performed following established procedures (Joliat, M. J., P. A. Lang, B. L. Lyons, L. Burzenski, M. A. Lynes, T. Yi, J. P. Sundberg, and L. D.
The sections were counterstained with Mayer's hematoxylin prior to microscopic examination. Tissue sections of 2 mice/group were evaluated. The number of immune cells was semi-quantified based on the following scheme: +, 0-1 positive cells/40×field; +, 2-5 positive cells/40×field; ++, 6-10 positive cells/40×field, etc.

intracellular Flag-PRL-2 = target: T2, intracellular Flag-PRL-2 (Homo sapiens, UniProt Q12974); experiment: Immunocomplex PTPase assay, Flag-PRL-2 NIH3T3 transfectants; type: cell-based
T2 construct: expressed in transfected cells; host or cells: NIH3T3 (pBabepuro, puromycin-selected)
Experimental: Immunocomplex PTPase assays were performed to assess the effects of sodium stibogluconate on intracellular PTPases. Cells were untreated or treated with sodium stibogluconate for 5 minutes, washed with fresh medium and then lysed in cold lysis buffer (50 mM Tris, pH 7.4; 150 mM NaCl; 1% NP40; 2 mM PMSF; 20 μg/ml of Aprotinin). The lysates were incubated with an anti-Flag antibody in immunoprecipitation assays. The immunocomplexes were collected with protein G sepharose beads (Pharmacia) and washed in cold lysis buffer for 4 times. […] C. for 18 hrs. 100 µL of malachite green solution (UBI) was added to each reaction prior to measurement of OD660 to quantify the amounts of free phosphate cleaved by the PTPases from the peptide substrate (Pathak et al., J. Imumol. 167, 3391 (2001)). The remaining 10% contents of individual samples were analyzed by SDS-PAGE/Western blotting to quantify the relative amounts of the phosphatase proteins. […]
The effects of sodium stibogluconate on intracellular PTPases were assessed using NIH3T3 or WM9 transfectants. […]

DU145 tumors = DU145 tumors in athymic nude mice, sodium stibogluconate alone; conditions: mouse, in vivo
Experimental: Athymic nude mice (nu/nu, NCR), 4 weeks old (Taconic), were inoculated (s.c.) in the flanks with DU145 cells (3×10^6 cells/site) on day 0, Starting on day 2, the mice were subjected to no treatment (Control) or treatment with sodium stibogluconate (12 mg, […], daily, i.m., at the hip area). The dosage of sodium stibogluconate used in the study was similar to the effective daily dose of sodium stibogluconate for the treatment of murine leishmaniasis (Murray, et al. 1988). Tumor volume was measured and calculated using the formula for a prolate spheroid (V=4/3 7 a^2b) (Lindner, et al. 1997). Hematoxylin+Eosin (H.E.) stained tissue sections of internal organs and tumor inoculation sites tissues of the mice were prepared and subjected microscopic evaluation.
Nude mice were inoculated with DU145 cells sub-cutaneously at the shoulder area. Two days after inoculation when tumors were visible, the mice were subjected to no treatment (control) or sodium stibogluconate treatment (daily injection of 440 mg/kg, intermuscular at the hip area). […] Histology of their major organs was unremarkable.

T2 sequence (Q12974 whole entry): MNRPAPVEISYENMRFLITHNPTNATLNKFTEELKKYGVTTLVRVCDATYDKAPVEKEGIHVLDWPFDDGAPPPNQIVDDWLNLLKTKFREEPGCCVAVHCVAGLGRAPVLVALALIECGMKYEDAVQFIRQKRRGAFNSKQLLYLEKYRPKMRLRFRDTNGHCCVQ
T1 sequence (P18031 whole entry, species assumed): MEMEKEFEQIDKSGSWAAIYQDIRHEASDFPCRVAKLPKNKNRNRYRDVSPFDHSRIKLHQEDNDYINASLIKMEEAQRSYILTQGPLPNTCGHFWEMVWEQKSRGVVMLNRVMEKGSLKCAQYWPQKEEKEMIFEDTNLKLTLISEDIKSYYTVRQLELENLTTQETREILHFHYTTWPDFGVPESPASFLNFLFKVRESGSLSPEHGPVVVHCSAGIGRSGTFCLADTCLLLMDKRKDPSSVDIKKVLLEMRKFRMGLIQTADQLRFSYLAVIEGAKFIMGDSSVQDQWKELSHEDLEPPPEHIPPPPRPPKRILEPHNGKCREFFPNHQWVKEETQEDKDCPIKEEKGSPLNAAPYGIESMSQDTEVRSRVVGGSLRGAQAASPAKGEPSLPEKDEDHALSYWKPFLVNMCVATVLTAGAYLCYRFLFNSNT

Question: For `O.O.O.O.O.O.O.O.O.O=C([O-])[C@@H]1[O][Sb]2([O-])([O][Sb]34([OH])[O][C@H]([C@H](O)CO)[C@H]([O]3)[C@H](C(=O)[O-])[O]4)[O][C@H]([C@H](O)CO)[C@@H]1[O]2.[Na+].[Na+].[Na+]` [sodium stibogluconate], which “inhibition of PTP1B activity” value (PTP1B) is on record?
Answer: The value was “only modestly effective”.

Question: What about the “IFN-alpha-induced Stat1 tyrosine phosphorylation in WM35 and WiT49-N1 cell lines” value [1] of the same compound?
Answer: The value was “failed to enhance”.

Question: What about the “Stat1 tyrosine phosphorylation in DR cells in the absence of IFN-alpha” value [1] of the same compound?
Answer: Its value is “failed to induce”.

Question: And the “IFN-alpha-induced Stat1 tyrosine phosphorylation in DR cells” value ([1]; 10 μg/ml, 30 min post-stimulation)?
Answer: Its value is “approximately two folds greater than control”.

Question: What about the “IFN-alpha-induced Stat1 tyrosine phosphorylation in WM9 and DU145 cell lines” value ([1]; 5 hours post-stimulation) of the same compound?
Answer: The value was “Enhanced”.

Question: And the “numbers of tumor-infiltrating T cells or NK cells” value [2]?
Answer: Its value is “little effect”.

Question: And the “time required for full removal of effect on intracellular PRL-2 activity” value (intracellular Flag-PRL-2)?
Answer: The value was “at least 24 hours”.

Question: And the “PTPase activity of immunocomplexes from treated Flag-PRL-2 transfectants” value (intracellular Flag-PRL-2; cells treated 5 min)?
Answer: Its value is “lack of PTPase activity”.

Question: And the “histology of major organs” value (DU145 tumors)?
Answer: The value was “unremarkable”.

Question: What about the survival of mice (DU145 tumors) of the same compound?
Answer: The survival of mice was “survived until the end of the study”.
